Converted amounts (≈) assume the structure as drawn.
Key:
Assay in all cases: In vitro MIC, 2010 surveillance isolates
MSSA = type: cell-based; details: N America; N=2373
Enterobacter spp = type: cell-based; details: for % R (resistance): CLSI breakpoints
K. pneumoniae ESBL− = type: cell-based, Klebsiella pneumoniae; details: for % R (resistance): CLSI breakpoints
MR CoNS = type: cell-based, Coagulase-Negative Staphylococcus
E. faecalis VNS = type: cell-based; details: for % R (resistance): CLSI breakpoints
E. coli ESBL+ = type: cell-based, Escherichia coli; details: for % R (resistance): CLSI breakpoints
E. faecium VS = type: cell-based; details: for % R (resistance): CLSI breakpoints
E. cloacae CeftazS = type: cell-based; details: for % R (resistance): CLSI breakpoints
MRSA = type: cell-based
A. baumanii = type: cell-based

With `C[C@H]1c2cccc(O)c2C(=O)C2=C(O)[C@]3(O)C(=O)C(C(N)=O)=C(O)[C@@H](N(C)C)[C@@H]3[C@@H](O)[C@@H]21` [Doxycycline] the MIC90 (MSSA) was 0.12 µg/mL (≈ 0.27 µM), the MIC90 (Enterobacter spp; Asia/Pac, N=52) was > 8 µg/mL and the MIC90 (Enterobacter spp; Europe, N=82) was 8 µg/mL (≈ 18 µM). For the same molecule, the “% R (resistance)” value (Enterobacter spp; L. Amer) was 0%, the MIC90 (Enterobacter spp; L. Amer, N=42) was 4 µg/mL (≈ 9 µM) and the “% R (resistance)” value (Enterobacter spp; N America) was 7.9%. The MIC90 (Enterobacter spp; N America, N=101) was 4 µg/mL (≈ 9 µM), the MIC90 (K. pneumoniae ESBL−; Asia/Pac, N=189) was > 8 µg/mL and the MIC90 (K. pneumoniae ESBL−; Europe, N=361) was > 8 µg/mL. The “% R (resistance)” value (K. pneumoniae ESBL−; L. Amer) was 17.5%, the MIC90 (K. pneumoniae ESBL−; L. Amer, N=160) was > 8 µg/mL and the “% R (resistance)” value (K. pneumoniae ESBL−; N America) was 13.7%. For the same molecule, the MIC90 (K. pneumoniae ESBL−; N America, N=671) was > 8 µg/mL, the “% R (resistance)” value (MR CoNS; Asia/Pac, Eucast breakpoints) was 20.8% and the MIC90 (MR CoNS; Asia/Pac, N=77) was 8 µg/mL (≈ 18 µM). For the same molecule, the “% R (resistance)” value (MR CoNS; Europe, Eucast breakpoints) was 8.8%, the MIC90 (MR CoNS; Europe, N=510) was 2 µg/mL (≈ 4.5 µM) and the “% R (resistance)” value (MR CoNS; L. Amer, CLSI breakpoints) was 0.3%. The MIC90 (MR CoNS; L. Amer, N=301) was 1 µg/mL (≈ 2.25 µM), the “% R (resistance)” value (MR CoNS; N America, CLSI breakpoints) was 1.3% and the MIC90 (MR CoNS; N America, N=461) was 2 µg/mL (≈ 4.5 µM). For the same molecule, the “range of MICs (N <10, shown instead of MIC90)” value (shortened to “range of MICs”) (E. faecalis VNS; Asia/Pac, N=1) was 8, the “range of MICs” value (E. faecalis VNS; Europe, N=8) was 0.5-8 and the “% R (resistance)” value (E. faecalis VNS; L. Amer) was 0%. The “range of MICs” value (E. faecalis VNS; L. Amer, N=7) was ≤0.06-4, the “% R (resistance)” value (E. faecalis VNS; N America) was 5.3% and the MIC90 (E. faecalis VNS; N America, N=38) was 8 µg/mL (≈ 18 µM). The MIC90 (E. coli ESBL+; Asia/Pac, N=219) was > 8 µg/mL, the “resistance rates for ESBL-producing clinical isolates” value (E. coli ESBL+; E. coli) was 46% and the MIC90 (E. coli ESBL+; Europe, N=274) was > 8 µg/mL. The “% R (resistance)” value (E. coli ESBL+; L. Amer) was 53%, the MIC90 (E. coli ESBL+; L. Amer, N=168) was > 8 µg/mL and the “% R (resistance)” value (E. coli ESBL+; N America) was 42.5%. For the same molecule, the MIC90 (E. coli ESBL+; N America, N=134) was > 8 µg/mL, the MIC90 (E. faecium VS; Asia/Pac, N=106) was > 8 µg/mL and the MIC90 (E. faecium VS; Europe, N=303) was > 8 µg/mL. The “% R (resistance)” value (E. faecium VS; L. Amer) was 21.6%, the MIC90 (E. faecium VS; L. Amer, N=51) was > 8 µg/mL and the “% R (resistance)” value (E. faecium VS; N America) was 31.3%. For the same molecule, the MIC90 (E. faecium VS; N America, N=115) was > 8 µg/mL, the MIC90 (E. cloacae CeftazS; Asia/Pac, N=100) was > 8 µg/mL and the MIC90 (E. cloacae CeftazS; Europe, N=183) was 4 µg/mL (≈ 9 µM). For the same molecule, the “% R (resistance)” value (E. cloacae CeftazS; L. Amer) was 12.3%, the MIC90 (E. cloacae CeftazS; L. Amer, N=57) was > 8 µg/mL and the “% R (resistance)” value (E. cloacae CeftazS; N America) was 6.2%. For the same molecule, the MIC90 (E. cloacae CeftazS; N America, N=210) was 4 µg/mL (≈ 9 µM), the “% R (resistance)” value (MRSA; Asia/Pac, Eucast breakpoints) was 48.6% and the MIC90 (MRSA; Asia/Pac, N=428) was 8 µg/mL (≈ 18 µM). For the same molecule, the “% R (resistance)” value (MRSA; Europe, Eucast breakpoints) was 10.8%, the MIC90 (MRSA; Europe, N=750) was 4 µg/mL (≈ 9 µM) and the “% R (resistance)” value (MRSA; L. Amer, CLSI breakpoints) was 0%. The MIC90 (MRSA; L. Amer, N=506) was 0.25 µg/mL (≈ 0.563 µM), the “% R (resistance)” value (MRSA; N America, CLSI breakpoints) was 0.1% and the MIC90 (MRSA; N America, N=2508) was 0.5 µg/mL (≈ 1.13 µM). The MIC90 (A. baumanii; Asia/Pac, N=275) was > 8 µg/mL, the MIC90 (A. baumanii; Europe, N=145) was > 8 µg/mL and the “% R (resistance)” value (A. baumanii; L. Amer, CLSI breakpoints) was 15.3%. For the same molecule, the MIC90 (A. baumanii; L. Amer, N=275) was > 8 µg/mL and the MIC90 (A. baumanii; N America, N=154) was > 8 µg/mL.

Reference: patent publication US10238670B2, “9-aminomethyl minocycline compounds and methods of use thereof in urinary tract infection (UTI) treatment” (Paratek Pharmaceuticals, Inc., priority 2016, dated 2019)
